Results: patent US20070167492A1, “Molluscicidal agents” (priority 2003, published 2007)

Test system: Deroceras reticulatum (grey field slug)
Assay: Example 1: pot test, treated winter wheat seed with 5 adult slugs per pot, 14 days
Assay type: in vivo
Outline: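 Fludioxonil-disinfected winter wheat seed (Kampa, 40 per pot) sown on quartz sand over potting soil with 5 adult slugs per pot; ±15° C., ±90% RH, 12 h light/12 h dark, 4 replicates. Damaged seeds, plants, dead slugs and fecal pellets counted up to day 14; F-tests and Student-tests.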

[1] = 2 ml formulated per kg seed, 2 days after sowing
[2] = 2 ml formulated per kg seed, 3 days after sowing
[3] = 2 ml formulated per kg seed, 7 days after sowing
[4] = 2 ml formulated per kg seed, 10 days after sowing
[5] = 2 ml formulated per kg seed, 14 days after sowing
[6] = 4 ml formulated per kg seed, 2 days after sowing
[7] = 4 ml formulated per kg seed, 3 days after sowing
[8] = 4 ml formulated per kg seed, 7 days after sowing
[9] = 4 ml formulated per kg seed, 10 days after sowing
[10] = 4 ml formulated per kg seed, 14 days after sowing
[11] = 8 ml formulated per kg seed, 2 days after sowing
[12] = 8 ml formulated per kg seed, 3 days after sowing
[13] = 8 ml formulated per kg seed, 7 days after sowing
[14] = 8 ml formulated per kg seed, 10 days after sowing
[15] = 8 ml formulated per kg seed, 14 days after sowing
[16] = 12 ml formulated per kg seed, 2 days after sowing
[17] = 12 ml formulated per kg seed, 3 days after sowing
[18] = 12 ml formulated per kg seed, 7 days after sowing
[19] = 12 ml formulated per kg seed, 10 days after sowing
[20] = 12 ml formulated per kg seed, 14 days after sowing
[21] = 3.8 ml formulated per kg seed, 2 days after sowing
[22] = 3.8 ml formulated per kg seed, 3 days after sowing
[23] = 3.8 ml formulated per kg seed, 7 days after sowing
[24] = 3.8 ml formulated per kg seed, 10 days after sowing
[25] = 3.8 ml formulated per kg seed, 14 days after sowing
[26] = 7.5 ml formulated per kg seed, 2 days after sowing
[27] = 7.5 ml formulated per kg seed, 3 days after sowing
[28] = 7.5 ml formulated per kg seed, 7 days after sowing
[29] = 7.5 ml formulated per kg seed, 10 days after sowing
[30] = 7.5 ml formulated per kg seed, 14 days after sowing
[31] = 11 ml formulated per kg seed, 2 days after sowing
[32] = 11 ml formulated per kg seed, 3 days after sowing
[33] = 11 ml formulated per kg seed, 7 days after sowing
[34] = 11 ml formulated per kg seed, 10 days after sowing
[35] = 11 ml formulated per kg seed, 14 days after sowing
[36] = 15 ml formulated per kg seed, 2 days after sowing
[37] = 15 ml formulated per kg seed, 3 days after sowing
[38] = 15 ml formulated per kg seed, 7 days after sowing
[39] = 15 ml formulated per kg seed, 10 days after sowing
[40] = 15 ml formulated per kg seed, 14 days after sowing

Compound: O=[N+]([O-])NC1=NCCN1Cc1ccc(Cl)nc1 [imidacloprid]
- number of utilizable plants after 14 days (2 ml formulated per kg seed): 2.5
- percentage of damaged seeds after 14 days (2 ml formulated per kg seed): 86%
- Mean number of damaged seeds per pot [1]: 2.8
- Mean number of dead slugs per pot [1]: 0
- Mean number fecal pellets per pot [2]: 33
- Mean number of damaged seeds per pot [2]: 10.3
- Mean number of dead slugs per pot [2]: 0
- Mean number of plants present per pot [2]: 3.8
- Mean number fecal pellets per pot [3]: 118
- Mean number of damaged seeds per pot [3]: 33.0
- Mean number of dead slugs per pot [3]: 0
- Mean number of plants present per pot [3]: 2.8
- Mean number fecal pellets per pot [4]: 109
- Mean number of damaged seeds per pot [4]: 33.5
- Mean number of dead slugs per pot [4]: 0.3
- Mean number of plants present per pot [4]: 4.5
- Mean number fecal pellets per pot [5]: 116
- Mean number of damaged seeds per pot [5]: 34.3
- Mean number of dead slugs per pot [5]: 0.5
- Mean number of plants present per pot [5]: 3.3
- number of utilizable plants after 14 days (4 ml formulated per kg seed): 0.8
- percentage of damaged seeds after 14 days (4 ml formulated per kg seed): 81%
- Mean number of damaged seeds per pot [6]: 1.0
- Mean number of dead slugs per pot [6]: 0
- Mean number fecal pellets per pot [7]: 21
- Mean number of damaged seeds per pot [7]: 7.3
- Mean number of dead slugs per pot [7]: 0.3
- Mean number of plants present per pot [7]: 2.3
- Mean number fecal pellets per pot [8]: 108
- Mean number of damaged seeds per pot [8]: 32.8
- Mean number of dead slugs per pot [8]: 0.3
- Mean number of plants present per pot [8]: 1.3
- Mean number fecal pellets per pot [9]: 118
- Mean number of damaged seeds per pot [9]: 31.5
- Mean number of dead slugs per pot [9]: 0.3
- Mean number of plants present per pot [9]: 4.0
- Mean number fecal pellets per pot [10]: 126
- Mean number of damaged seeds per pot [10]: 32.3
- Mean number of dead slugs per pot [10]: 0.3
- Mean number of plants present per pot [10]: 3.5
- number of utilizable plants after 14 days (8 ml formulated per kg seed): 7.3
- percentage of damaged seeds after 14 days (8 ml formulated per kg seed): 59%
- Mean number of damaged seeds per pot [11]: 1.3
- Mean number of dead slugs per pot [11]: 0
- Mean number fecal pellets per pot [12]: 11
- Mean number of damaged seeds per pot [12]: 4.5
- Mean number of dead slugs per pot [12]: 0
- Mean number of plants present per pot [12]: 13.8
- Mean number fecal pellets per pot [13]: 48
- Mean number of damaged seeds per pot [13]: 23.8
- Mean number of dead slugs per pot [13]: 0
- Mean number of plants present per pot [13]: 9.0
- Mean number fecal pellets per pot [14]: 65
- Mean number of damaged seeds per pot [14]: 23.5
- Mean number of dead slugs per pot [14]: 0.3
- Mean number of plants present per pot [14]: 9.5
- Mean number fecal pellets per pot [15]: 75
- Mean number of damaged seeds per pot [15]: 23.8
- Mean number of dead slugs per pot [15]: 0.5
- Mean number of plants present per pot [15]: 10.5
- number of utilizable plants after 14 days (12 ml formulated per kg seed): 14.3
- percentage of damaged seeds after 14 days (12 ml formulated per kg seed): 22%
- Mean number of damaged seeds per pot [16]: 0.0
- Mean number of dead slugs per pot [16]: 0
- Mean number fecal pellets per pot [17]: 9
- Mean number of damaged seeds per pot [17]: 4.3
- Mean number of dead slugs per pot [17]: 1.5
- Mean number of plants present per pot [17]: 11.8
- Mean number fecal pellets per pot [18]: 26
- Mean number of damaged seeds per pot [18]: 11.5
- Mean number of dead slugs per pot [18]: 1.5
- Mean number of plants present per pot [18]: 16.3
- Mean number fecal pellets per pot [19]: 35
- Mean number of damaged seeds per pot [19]: 7.8
- Mean number of dead slugs per pot [19]: 1.5
- Mean number of plants present per pot [19]: 19.0
- Mean number fecal pellets per pot [20]: 38
- Mean number of damaged seeds per pot [20]: 8.8
- Mean number of dead slugs per pot [20]: 1.5
- Mean number of plants present per pot [20]: 20
- damaged seeds relative to untreated seed (Example 1, 2 ml/kg): no controlling effect
- damaged seeds relative to untreated seed (Example 1, 4 ml/kg): controlling effect only after 2 and 3 days
- damaged seeds relative to untreated seed (Example 1, 8 ml/kg, after 3, 7 and 14 days): significant controlling effect
- damaged seeds relative to the untreated pots (Example 1, 12 ml per kg of seed, at each observation): significantly less damaged seeds
- fecal pellets relative to the untreated seed (Example 1, 12 ml per kg of seed, each observation): significantly less fecal pellets
- dead slugs relative to the untreated seed (Example 1, 12 ml/kg, 3 and 7 days after the start): significantly more dead slugs
- plants present relative to the untreated seed (Example 1, 12 ml/kg, at each observation): significantly more plants present
- slug controlling effect (conclusion) (Example 1, dosage of 12 ml per kg of seed): good slug controlling agent

Compound: CC1OC(C)OC(C)OC(C)O1 (stereo not shown) [metaldehyde]
- number of utilizable plants after 14 days (3.8 ml formulated per kg seed): 32.3
- percentage of damaged seeds after 14 days (3.8 ml formulated per kg seed): 7%
- Mean number of damaged seeds per pot [21]: 0
- Mean number of dead slugs per pot [21]: 0
- Mean number fecal pellets per pot [22]: 1
- Mean number of damaged seeds per pot [22]: 0.3
- Mean number of dead slugs per pot [22]: 0
- Mean number of plants present per pot [22]: 9.3
- Mean number fecal pellets per pot [23]: 4
- Mean number of damaged seeds per pot [23]: 2.5
- Mean number of dead slugs per pot [23]: 0
- Mean number of plants present per pot [23]: 34.8
- Mean number fecal pellets per pot [24]: 5
- Mean number of damaged seeds per pot [24]: 1.3
- Mean number of dead slugs per pot [24]: 0
- Mean number of plants present per pot [24]: 33.0
- Mean number fecal pellets per pot [25]: 31
- Mean number of damaged seeds per pot [25]: 2.8
- Mean number of dead slugs per pot [25]: 0.5
- Mean number of plants present per pot [25]: 34.0
- number of utilizable plants after 14 days (7.5 ml formulated per kg seed): 34.3
- percentage of damaged seeds after 14 days (7.5 ml formulated per kg seed): 6%
- Mean number of damaged seeds per pot [26]: 0
- Mean number of dead slugs per pot [26]: 0
- Mean number fecal pellets per pot [27]: 2
- Mean number of damaged seeds per pot [27]: 0
- Mean number of dead slugs per pot [27]: 0
- Mean number of plants present per pot [27]: 3.5
- Mean number fecal pellets per pot [28]: 4
- Mean number of damaged seeds per pot [28]: 3.5
- Mean number of dead slugs per pot [28]: 0.8
- Mean number of plants present per pot [28]: 34.3
- Mean number fecal pellets per pot [29]: 4
- Mean number of damaged seeds per pot [29]: 2.5
- Mean number of dead slugs per pot [29]: 1.0
- Mean number of plants present per pot [29]: 35.3
- Mean number fecal pellets per pot [30]: 6
- Mean number of damaged seeds per pot [30]: 2.5
- Mean number of dead slugs per pot [30]: 1.5
- Mean number of plants present per pot [30]: 35.0
- number of utilizable plants after 14 days (11 ml formulated per kg seed): 36.3
- percentage of damaged seeds after 14 days (11 ml formulated per kg seed): 1%
- Mean number of damaged seeds per pot [31]: 0
- Mean number of dead slugs per pot [31]: 0
- Mean number fecal pellets per pot [32]: 2
- Mean number of damaged seeds per pot [32]: 0
- Mean number of dead slugs per pot [32]: 0
- Mean number of plants present per pot [32]: 9.8
- Mean number fecal pellets per pot [33]: 2
- Mean number of damaged seeds per pot [33]: 1.0
- Mean number of dead slugs per pot [33]: 0.5
- Mean number of plants present per pot [33]: 34.0
- Mean number fecal pellets per pot [34]: 1
- Mean number of damaged seeds per pot [34]: 0.3
- Mean number of dead slugs per pot [34]: 0.5
- Mean number of plants present per pot [34]: 35.8
- Mean number fecal pellets per pot [35]: 3
- Mean number of damaged seeds per pot [35]: 0.3
- Mean number of dead slugs per pot [35]: 1.0
- Mean number of plants present per pot [35]: 36.5
- number of utilizable plants after 14 days (15 ml formulated per kg seed): 34.5
- percentage of damaged seeds after 14 days (15 ml formulated per kg seed): 0%
- Mean number of damaged seeds per pot [36]: 0.3
- Mean number of dead slugs per pot [36]: 0
- Mean number fecal pellets per pot [37]: 1
- Mean number of damaged seeds per pot [37]: 0
- Mean number of dead slugs per pot [37]: 0.3
- Mean number of plants present per pot [37]: 6.3
- Mean number fecal pellets per pot [38]: 3
- Mean number of damaged seeds per pot [38]: 0.8
- Mean number of dead slugs per pot [38]: 0.8
- Mean number of plants present per pot [38]: 35.0
- Mean number fecal pellets per pot [39]: 4
- Mean number of damaged seeds per pot [39]: 0
- Mean number of dead slugs per pot [39]: 0.8
- Mean number of plants present per pot [39]: 35.0
- Mean number fecal pellets per pot [40]: 5
- Mean number of damaged seeds per pot [40]: 0
- Mean number of dead slugs per pot [40]: 1.0
- Mean number of plants present per pot [40]: 35.3
- damaged seeds relative to the control (Example 1, 3.8, 7.5, 11 or 15 ml per kg of seed, all dosages): significantly less damaged seeds
- plants present relative to untreated (Example 1, all dosages, after 7 days): significantly more plants present
- fecal pellets relative to the untreated seed (Example 1, at each dosage and at each observation): significantly less fecal pellets
- protection / slug controlling effect (conclusion) (Example 1, winter wheat seed treatment, dosages tested): excellent protection against slugs
